Measurements: patent US9278962B2 (Cytokinetics, Inc., priority 2011, dated 2016)

Test system: rabbit skeletal myofibrils (approximately 90% fast fibers)
Experiment: Activation of fast skeletal myofibrils (PUMA coupled-enzyme ATPase assay, AC1.4)
Assay type: biochemical
Settings: concentration at which the compound increased enzymatic activity by 40%, calcium at pCa25
Protocol: Rabbit skeletal myofibrils were prepared based upon the method of Herrmann et al. (Biochem. 32(28):7255-7263(1993). Myofibrils were prepared from rabbit psoas muscle purchased from Pel-Freez Biologicals (Arkansas) within 2 days of ordering, stored on ice. Minced muscle was homogenized in 10 volumes of ice-cold “standard” buffer (50 mM Tris, pH 7.4, 0.1 M potassium acetate, 5 mM KCl, 2 mM DTT, 0.2 mM PMSF, 10 μM leupeptin, 5 μM pepstatin, and 0.5 mM sodium azide) containing 5 mM EDTA and 0.5% Triton X-100 using an Omni-Macro homogenizer. Myofibrils were recovered by low speed centrifugation (3000 rpm for 10 minutes) and washed 2 times in the Triton X-100 containing buffer to ensure removal of cellular membrane. Following the Triton washes, myofibrils were washed 3 times in “standard” buffer containing 2 mM magnesium acetate. A final wash in assay buffer (12 mM PIPES, pH 6.8, 60 mM KCl, 1 mM DTT) was performed and brought to 10% sucrose for flash freezing in liquid nitrogen and storage at −80° C.
Fast fiber activators were identified by measuring the enzymatic activity of muscle myofibril preparations using the proprietary PUMA™ (see, e.g., U.S. Pat. Nos. 6,410,254, 6,743,599, 7,202,051, and 7,378,254) assay system. Myofibril preparations consisted of rabbit skeletal muscle (approximately 90% fast fibers) that had been mechanically homogenized and washed with a detergent (triton X-100) to remove cellular membranes. This preparation retained all of the sarcomeric components in a native conformation and the enzymatic activity was still regulated by calcium. Compounds were tested using a myofibril suspension and a level of calcium sufficient to increase enzymatic activity of the myofibrils to 25% of their maximal rate (termed pCa25). Enzymatic activity was tracked via a pyruvate kinase and lactate dehydrogenase-coupled enzyme system. This assay regenerates myosin-produced ADP into ATP by oxidizing NADH, producing an absorbance change at 340 nm. The buffering system was 12 mM Pipes, 2 mM MgCl2, 1 mM DTT at pH 6.8 (PM12 buffer).
Using procedures similar to those described herein, utilizing reagents and intermediates commercially available (e.g., Sigma-Aldrich) or readily synthesized by one of skill in the art, the compounds in Table 2, Table 3, Table 4 and Table 5 were synthesized, characterized and tested. AC1.4 values were determined according to the procedure described in Example 6, and the reported median AC1.4 values are as follows: A=<1 uM; B=1-10 uM; C=10-20 uM; D=>20 uM.

Row | Structure (SMILES) | Mean AC1.4 (Table 2) | other results
1 | CC(C)(CNc1nc(CCC(=O)N2CCC(O)CC2)ns1)c1ccc(F)cc1 [3-(5-{[2-(4-fluorophenyl)-2-methylpropyl]amino}(1,2,4-thiadiazol-3-yl))-1-(4-hydroxypiperidyl)propan-1-one] | D (D=>20 uM) | 
2 | CC(C)(CNc1nc(Cc2ccc(F)cc2)ns1)c1ccc(Cl)cc1 [[2-(4-chlorophenyl)-2-methylpropyl]{3-[(4-fluorophenyl)methyl](1,2,4-thiadiazol-5-yl)}amine] | A (A=<1 uM) | 
3 | CC(C)(CNc1nc2ccc(C#N)cc2s1)c1ccc(F)cc1 [2-(2-(4-fluorophenyl)-2-methylpropylamino)benzo[d] thiazole-6-carbonitrile] |  | Mean AC1.4 (Table 4): B (B=1-10 uM)
4 | CN1CCN(Cc2nsc(NCC(C)(C)c3ccc(F)cc3)n2)CC1 [[2-(4-fluorophenyl)-2-methylpropyl]{3-[(4-methylpiperazinyl)methyl](1,2,4-thiadiazol-5-yl)}amine] | C (C=10-20 uM) | 
5 | Fc1cccnc1C1(CNc2nnc(C3CCCC3)s2)CCC1 [5-cyclopentyl-N-((1-(3-fluoropyridin-2-yl)cyclobutyl)methyl)-1,3,4-thiadiazol-2-amine] |  | Mean AC1.4 (Table 3): B (B=1-10 uM)
6 | CC(C)(CNc1nc(CCC(=O)N2CCCC2)ns1)c1ccc(F)cc1 [3-(5-{[2-(4-fluorophenyl)-2-methylpropyl]amino}(1,2,4-thiadiazol-3-yl))-1-pyrrolidinylpropan-1-one] | C (C=10-20 uM) | 
7 | CC(C)(CNc1nc(-c2ccc(C#N)c(F)c2)ns1)c1ccc(F)cc1 [2-fluoro-4-(5-{[2-(4-fluorophenyl)-2-methylpropyl]amino}(1,2,4-thiadiazol-3-yl))benzenecarbonitrile] | B (B=1-10 uM) | 
8 | C[C@@H](CNc1nc(Cc2cccc(O)c2)ns1)c1ccc(F)cc1 [3-[(5-{[(2R)-2-(4-fluorophenyl)propyl]amino}-1,2,4-thiadiazol-3-yl)methyl]phenol] | A (A=<1 uM) | 
9 | COc1cccc(C(C)c2nsc(N(C)CC(C)(C)c3ccc(F)cc3)n2)c1 (centres unmarked) [[2-(4-fluorophenyl)-2-methylpropyl]{3-[(3-methoxyphenyl)ethyl](1,2,4-thiadiazol-5-yl)}methylamine] | D (D=>20 uM) | 
10 | CC(C)(CNc1nc(CC(O)CO)ns1)c1ccc(F)cc1 (centres unmarked) [3-(5-{[2-(4-fluorophenyl)-2-methylpropyl]amino}-1,2,4-thiadiazol-3-yl)propane-1,2-diol] | B (B=1-10 uM) | 
11 | CN(CCO)c1nsc(NCC(C)(C)c2ccc(F)cc2)n1 | D (D=>20 uM) | 
12 | CC(C)(CNc1nc2c(Cl)cc(C#N)cc2s1)c1ccc(F)cc1 [4-chloro-2-(2-(4-fluorophenyl)-2-methylpropylamino)benzo[d] thiazole-6-carbonitrile] |  | Mean AC1.4 (Table 4): A (A=<1 uM)
13 | CC(C)(O)/C=C/c1nsc(NCC(C)(C)c2ccc(F)cc2)n1 [(3E)-4-(5-{[2-(4-fluorophenyl)-2-methylpropyl]amino}(1,2,4-thiadiazol-3-yl))-2-methylbut-3-en-2-ol] | B (B=1-10 uM) | 
14 | NC(=O)c1cccc(-c2nnc(NC[C@]3(c4ncccc4F)C[C@H](F)C3)s2)c1 [3-(5-(((trans)-3-fluoro-1-(3-fluoropyridin-2-yl)cyclobutyl)methylamino)-1,3,4-thiadiazol-2-yl)benzamide] |  | Mean AC1.4 (Table 3): B (B=1-10 uM)
15 | COc1cccc(Cc2nsc(NCc3ccc(Cl)c(Cl)c3)n2)c1 [[(3,4-dichlorophenyl)methyl]{3-[(3-methoxyphenyl)methyl](1,2,4-thiadiazol-5-yl)}amine] | D (D=>20 uM) | 
16 | CC(C)(CNc1nc(-c2cccc(CO)c2)ns1)c1ccc(F)cc1 [[3-(5-{[2-(4-fluorophenyl)-2-methylpropyl]amino}-1,2,4-thiadiazol-3-yl)phenyl]methan-1-ol] | B (B=1-10 uM) | 
17 | Fc1cccnc1C1(CNc2nnc(-c3ccccc3)s2)CCC1 [N-((1-(3-fluoropyridin-2-yl)cyclobutyl)methyl)-5-phenyl-1,3,4-thiadiazol-2-amine] |  | Mean AC1.4 (Table 3): A (A=<1 uM)
